Test results taken from US20250263671A1, “NEURON-INNERVATED ASSEMBLOIDS AND METHODS OF MAKING THE SAME” (University of Georgia Research Foundation, Inc., priority 2024, published 2025).
Entries after “also recorded” stand apart in the source; their conditions may differ.

Legend:
neonatal mouse hearts = conditions: symN lesions in neonatal mouse hearts; cited from earlier work
hSCAs [1] = assay: labetalol treatment during hSCA development: assembloid size and cell count; type: cell-based, human
Protocol: (§1) The effect of SymN activation on heart development has been reported, potentially through NE and adrenergic signaling^22,23. […] To test if the symNs in hSCAs play a regulatory role on cardiac development and maturation, the assembloids were treated with α- and β-adrenergic receptor antagonist labetalol (LAB, 1 μM) to fully block the NE signaling during the growth of the hSCAs (FIG. 4B). The drug was given from wk3, the stage when the assembloid growth almost reaches its plateau (FIG. 1E). Given that symN activity may promote cellular hyperplastic to hypertrophic transition of CM^22,23, the overall size of hSCAs was compared on wk5 after LAB treatment.

hSCAs [2] = assay: RT-qPCR of wk5 hSCAs for cardiac maturity markers after labetalol treatment; type: cell-based, human; conditions: LAB 1 μM given from wk3, wk5 hSCAs, vs DMSO
Protocol: (§2) 0.5×10^6 cells were collected using Trizol (Invitrogen, 15596026) for each sample. Reverse transcription with 1 μg total RNA was performed using iScript™ Reverse Transcription Supermix (Bio-Rad, 170884). SYBR green (Bio-Rad) RT-qPCR was ran using CFX96 Touch Deep Well Real-Time PCR Detection System (Bio-Rad), and analyzed by CFX Maestro.
as §1

hPSC-derived CMs = conditions: CMs alone, without physical connection with symNs; cited from earlier work
symNs within the hSCAs = conditions: nicotine 1 μM, wk5 hSCAs
Protocol: To assess symN activity, calcium (Ca^2+) imaging was performed using Fluo-4 Ca^2+ labeling. To be able to distinguish Ca^2+ fluxes in symNs and not in cardiac tissues, symNblast were differentiated using the EF1-RFP reporter hPSC line and mixed with unlabeled cardiac progenitors (FIG. 3F).

hPSC-derived symNs = conditions: nicotine treatment; cited from earlier work
hypoxic hSCAs = assay: low oxygen (hypoxia-induced) cardiac infarction model on wk5 hSCAs; type: cell-based, human
Protocol: as §2
Wk5 hSCAs were fed with hSCA medium and placed into the hypoxia chamber (incubator subchamber system with O2/CO2 setpoint control, BioSpherix) with 10% O2, control group was maintained in regular culture condition (21% O2). hSCAs in both conditions were fed with fresh hSCA medium every 3 days for 10 days.
To test the effect of sympathetic input to cardiac function in the assembloids in a diseased state, a strategy was developed to model myocardial infarction. A model of myocardial infarction in cardiac organoids has been described^55. In this model, a moderate hypoxic environment (10% O2) was applied, which prevented massive and sudden cell death in 3D cardiac microtissues and allowed the observation of the progression of infarction. In addition to hypoxia, exogenous NE was added to the cardiac organoids to mimic the effects of increased sympathetic tone to the heart. […] The hypoxic stress stimulated overproduction of endogenous NE from symNs in hSCAs, measured via the NS510 probe and ELISA (FIG. 5C). […]

For `NCCc1cc(O)c(O)cc1O` [6-OHDA, 6-hydroxydopamine], the “proliferation of CMs” value (neonatal mouse hearts) is listed as “increased”.
For `CC(CCc1ccccc1)NCC(O)c1ccc(O)c(C(N)=O)c1` (stereo not drawn) [LAB, labetalol], the “overall size of hSCAs” value (hSCAs [1]; LAB 1 μM given from wk3, compared on wk5, vs DMSO) was “Differences in assembloid size were not observed; also recorded: not altered”, the hSCA cell number (hSCAs [1]; LAB-treated organoids compared to control, wk5) was “not altered” and the “expression of markers of CM maturity (CX43, α-ACTININ, and CD36), RT-qPCR” value (hSCAs [2]) was “decreased expressions”.
For `CC(C)NCC(O)c1ccc(O)c(O)c1` (stereo not drawn) [isoproterenol], the “improvement of CM maturity (mature cardiac gene expression, functional cardiac activity)” value (hPSC-derived CMs) is listed as “not sufficient to induce such maturity improvement”.
For `CN1CCCC1c1cccnc1` (stereo not drawn) [nicotine], the hSCA beating efficiency (symNs within the hSCAs) is listed as “increased hSCA beating efficiency” and the “spontaneous firing of action potentials” value (hPSC-derived symNs) is listed as “upregulated”.
For `CC(C)NCC(O)COc1cccc2ccccc12` (stereo not drawn) [propranolol], the “impaired expression of Ca2+ handling genes, RT-qPCR” value (hypoxic hSCAs; propranolol 1 μM in addition to low oxygen (10% O2, 10 days)) was “rescued” and the “cardiac fibrosis caused by hypoxic stress” value (hypoxic hSCAs; propranolol along with the hypoxic stress) was “rescued”.
